Test results taken from ChEMBL document CHEMBL2086361, “Synthesis and biological activity of pyridopyridazin-6-one p38α MAP kinase inhibitors. Part 2” (Bioorg Med Chem Lett, 2012).

Experiments:
[1] = in vivo; details: rhesus monkey, po, 2 mg/kg
[2] = in vivo; details: rat, plasma
[3] = in vivo; details: dog, iv, 0.25 mg/kg
[4] = in vivo; details: rat, iv, 1 mg/kg
[5] = in vivo; details: rhesus monkey
[6] = in vivo; details: rhesus monkey, iv, 1 mg/kg
[7] = in vivo; details: rat
[8] = in vivo; details: rat, po, 2 mg/kg
[9] = in vivo; details: dog, po, 2 mg/kg
[10] = in vivo; details: dog
[11] = in vivo; details: rhesus monkey, plasma
[12] = in vivo; details: dog, plasma

Cc1nnc(-c2ccc(F)c(-c3c(=O)ccn4nc(Oc5ccc(F)cc5F)ccc34)c2)o1
bioavailability [1]: 31% | AUC [2]: 20 µM·h | clearance [3]: 2.8 mL/min/kg | clearance [4]: 2 mL/min/kg | half-life [5]: 6.9 h | clearance [6]: 2 mL/min/kg | half-life [7]: 4.4 h | bioavailability [8]: 93% | bioavailability [9]: 15% | half-life [10]: 4.5 h | AUC [11]: 5.6 µM·h | AUC [12]: 2.1 µM·h
